In US20100034779A1, “COMPOSITIONS AND METHODS FOR PRODUCING PLURIPOTENT CELLS FROM ADULT TESTIS” (priority 2005, published 2010):
Entries after “also recorded” stand apart in the source; their conditions may differ.

Legend:
human SSCs = assay: formation of ESC-like colonies in culture of human SSCs; assay type: cell-based; conditions: BIO 1 μM; human cultures
Description: To optimize the culture condition, DMEM/F12 (1:1; Invitrogen) was applied instead of DMEM as basic medium and several growth factors for long-term culture were added: GDNF (4-50 ng/ml), bFGF (1-10 ng/ml), LIF (10^3 Units/ml), BIO (Calbiochem) and 1×B27 (Invitrogen). Collagenase IV (1 mg/ml in PBS) was used instead of trypsin/EDTA for passaging the cells. […] Tightly packed ESC-like colonies derived from human SSCs after 7 passages (about 1 month; FIG. 3d, e) when cells are cultured in DMEM/F12 medium containing 15% FCS, 2 mM glutamine, 1×NEAA, 50 μM β-ME, 10 ng/ml GDNF, 2 ng/ml bFGF, 10^3 Units/ml LIF and 1×B27.

non-human primate SSCs = assay: formation of ESC-like colonies in culture of non-human primate SSCs; assay type: cell-based; conditions: BIO 1 μM; non-human primate cultures
gap junctions = assay: fluorescence recovery after photobleaching (FRAP) of calcein AM in cardiac clusters; assay type: cell-based, mouse; conditions: carbenoxolone 50 μmol/L
Description: Functional coupling between cells is confirmed by fluorescence recovery after photobleaching (FRAP) analysis. Briefly, cardiac clusters were loaded with the membrane-permeant fluorescent dye calcein AM (5 μmol/L; Invitrogen) in Ca^2+-free Tyrode solution for 20 min at 37° C. After washing away the excess extracellular fluorescent dye to prevent further loading, the cultures were bathed in Ca^2+-free Tyrode solution and placed on the stage of a Zeiss LSM 5 PASCAL laser-scanning confocal microscope. Using Zeiss software, a rectangular region encompassing 30-50% of a single cell within a cell cluster was selected and its fluorescence was bleached by a high-intensity laser pulse (488 nm, 3-5 s duration). This caused immediate loss of calcein fluorescence emission recorded through a 505 nm long-pass emission filter. Calcein redistribution from adjacent unbleached cells through connexin pores into the bleached region of interest (ROI) was recorded in subsequent confocal images acquired at 30 s intervals for up to 10 min using a low-intensity laser pulse. Fluorescence recovery within ROI was plotted as a function of time and fit to a single exponential function: IROI (t)=A [1−exp (−kt)], where IROI (t) is the ROI fluorescence intensity at time t, A is the amplitude of fluorescence recovery, and k is the rate of recovery. The latter is considered a measure of gap junction permeability. […]

L-type calcium channels = biological target: T1, L-type calcium channels (Mus musculus, UniProt Q01815); assay: chronotropic effects of cardioactive drugs on beating cardiac clusters; assay type: cell-based; conditions: beating cardiac clusters at day 5+15; for beating frequency / contraction: 10^−5 mol/L; for chronotropic effect on the beating frequency of maGSC-derived cardiomyocytes: dose dependence
T1 construct: functional L-type calcium channels exist in the maGSC-derived beating cardiomyocytes; endogenous in cells; host or cells: beating cardiac clusters (day 5+15) differentiated from mouse maGSCs
T1 sequence (Q01815 whole entry): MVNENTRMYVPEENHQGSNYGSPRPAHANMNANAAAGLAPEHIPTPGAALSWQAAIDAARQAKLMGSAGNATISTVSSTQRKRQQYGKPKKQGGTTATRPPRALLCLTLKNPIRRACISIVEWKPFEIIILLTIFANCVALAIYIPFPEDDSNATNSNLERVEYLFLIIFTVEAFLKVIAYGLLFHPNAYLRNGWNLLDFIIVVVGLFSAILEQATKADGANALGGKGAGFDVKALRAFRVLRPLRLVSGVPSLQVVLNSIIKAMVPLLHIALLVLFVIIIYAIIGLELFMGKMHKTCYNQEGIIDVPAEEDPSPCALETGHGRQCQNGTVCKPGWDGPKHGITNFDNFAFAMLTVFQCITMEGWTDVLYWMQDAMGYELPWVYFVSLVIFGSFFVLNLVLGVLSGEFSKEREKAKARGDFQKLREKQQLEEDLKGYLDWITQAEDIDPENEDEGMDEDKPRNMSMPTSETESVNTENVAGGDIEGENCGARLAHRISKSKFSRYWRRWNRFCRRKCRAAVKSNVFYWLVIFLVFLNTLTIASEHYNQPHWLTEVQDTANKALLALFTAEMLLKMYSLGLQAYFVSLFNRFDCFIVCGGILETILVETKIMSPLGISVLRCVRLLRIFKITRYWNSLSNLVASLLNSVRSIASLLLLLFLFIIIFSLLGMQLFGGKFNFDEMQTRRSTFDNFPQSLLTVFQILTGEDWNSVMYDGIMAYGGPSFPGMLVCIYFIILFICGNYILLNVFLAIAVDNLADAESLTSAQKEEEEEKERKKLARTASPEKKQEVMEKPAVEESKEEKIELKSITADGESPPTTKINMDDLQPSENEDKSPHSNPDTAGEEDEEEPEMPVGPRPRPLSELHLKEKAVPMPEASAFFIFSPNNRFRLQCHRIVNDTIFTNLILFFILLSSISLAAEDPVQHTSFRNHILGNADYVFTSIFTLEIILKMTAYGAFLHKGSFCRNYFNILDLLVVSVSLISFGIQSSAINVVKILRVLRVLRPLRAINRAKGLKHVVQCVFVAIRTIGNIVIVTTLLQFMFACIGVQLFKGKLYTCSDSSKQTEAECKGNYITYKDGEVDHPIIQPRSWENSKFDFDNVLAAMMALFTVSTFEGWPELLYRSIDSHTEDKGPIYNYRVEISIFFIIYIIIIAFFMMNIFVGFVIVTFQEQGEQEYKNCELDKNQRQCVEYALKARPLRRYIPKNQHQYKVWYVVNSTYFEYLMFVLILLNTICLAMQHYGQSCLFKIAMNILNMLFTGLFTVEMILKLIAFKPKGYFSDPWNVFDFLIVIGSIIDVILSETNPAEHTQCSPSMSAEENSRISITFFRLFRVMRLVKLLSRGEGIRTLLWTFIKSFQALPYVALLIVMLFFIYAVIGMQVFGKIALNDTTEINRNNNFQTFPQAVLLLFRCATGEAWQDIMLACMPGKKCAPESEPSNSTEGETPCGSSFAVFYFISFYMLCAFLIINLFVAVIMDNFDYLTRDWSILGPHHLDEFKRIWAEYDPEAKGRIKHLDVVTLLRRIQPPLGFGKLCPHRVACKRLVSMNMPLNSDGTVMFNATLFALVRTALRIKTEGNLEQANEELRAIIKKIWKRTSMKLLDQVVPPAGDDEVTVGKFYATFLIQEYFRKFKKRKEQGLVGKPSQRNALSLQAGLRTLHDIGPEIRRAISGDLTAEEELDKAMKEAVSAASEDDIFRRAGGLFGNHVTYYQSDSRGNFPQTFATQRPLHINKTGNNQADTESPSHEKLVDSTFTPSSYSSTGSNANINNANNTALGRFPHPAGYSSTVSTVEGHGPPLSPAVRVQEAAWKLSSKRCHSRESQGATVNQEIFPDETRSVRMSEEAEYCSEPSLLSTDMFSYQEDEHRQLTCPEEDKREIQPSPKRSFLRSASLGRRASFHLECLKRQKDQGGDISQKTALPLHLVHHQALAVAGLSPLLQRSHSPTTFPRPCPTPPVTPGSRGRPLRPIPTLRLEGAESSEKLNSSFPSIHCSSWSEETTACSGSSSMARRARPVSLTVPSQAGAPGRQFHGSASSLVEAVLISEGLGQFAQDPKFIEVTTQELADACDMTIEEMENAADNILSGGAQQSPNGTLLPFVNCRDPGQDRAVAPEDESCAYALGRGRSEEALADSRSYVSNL
T1 sequence (Q8CC27 whole entry partner): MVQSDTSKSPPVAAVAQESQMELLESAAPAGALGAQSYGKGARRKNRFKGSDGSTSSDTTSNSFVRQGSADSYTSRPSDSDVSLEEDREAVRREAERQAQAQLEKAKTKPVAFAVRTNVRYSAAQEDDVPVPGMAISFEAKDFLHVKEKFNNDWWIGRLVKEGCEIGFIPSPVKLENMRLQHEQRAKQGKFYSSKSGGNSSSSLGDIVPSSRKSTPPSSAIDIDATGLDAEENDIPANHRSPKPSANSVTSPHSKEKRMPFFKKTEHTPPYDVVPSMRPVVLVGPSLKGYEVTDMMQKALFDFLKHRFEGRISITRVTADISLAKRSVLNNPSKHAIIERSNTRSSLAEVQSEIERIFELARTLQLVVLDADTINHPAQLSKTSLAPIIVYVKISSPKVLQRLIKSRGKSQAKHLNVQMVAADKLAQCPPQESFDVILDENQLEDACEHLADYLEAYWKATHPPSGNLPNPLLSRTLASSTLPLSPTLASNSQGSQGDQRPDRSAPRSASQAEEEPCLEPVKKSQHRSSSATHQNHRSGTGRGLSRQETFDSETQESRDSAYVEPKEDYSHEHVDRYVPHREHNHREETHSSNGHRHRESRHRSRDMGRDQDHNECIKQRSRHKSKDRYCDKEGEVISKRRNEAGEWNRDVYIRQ
T1 sequence (O08532 25-956 partner limits assumed): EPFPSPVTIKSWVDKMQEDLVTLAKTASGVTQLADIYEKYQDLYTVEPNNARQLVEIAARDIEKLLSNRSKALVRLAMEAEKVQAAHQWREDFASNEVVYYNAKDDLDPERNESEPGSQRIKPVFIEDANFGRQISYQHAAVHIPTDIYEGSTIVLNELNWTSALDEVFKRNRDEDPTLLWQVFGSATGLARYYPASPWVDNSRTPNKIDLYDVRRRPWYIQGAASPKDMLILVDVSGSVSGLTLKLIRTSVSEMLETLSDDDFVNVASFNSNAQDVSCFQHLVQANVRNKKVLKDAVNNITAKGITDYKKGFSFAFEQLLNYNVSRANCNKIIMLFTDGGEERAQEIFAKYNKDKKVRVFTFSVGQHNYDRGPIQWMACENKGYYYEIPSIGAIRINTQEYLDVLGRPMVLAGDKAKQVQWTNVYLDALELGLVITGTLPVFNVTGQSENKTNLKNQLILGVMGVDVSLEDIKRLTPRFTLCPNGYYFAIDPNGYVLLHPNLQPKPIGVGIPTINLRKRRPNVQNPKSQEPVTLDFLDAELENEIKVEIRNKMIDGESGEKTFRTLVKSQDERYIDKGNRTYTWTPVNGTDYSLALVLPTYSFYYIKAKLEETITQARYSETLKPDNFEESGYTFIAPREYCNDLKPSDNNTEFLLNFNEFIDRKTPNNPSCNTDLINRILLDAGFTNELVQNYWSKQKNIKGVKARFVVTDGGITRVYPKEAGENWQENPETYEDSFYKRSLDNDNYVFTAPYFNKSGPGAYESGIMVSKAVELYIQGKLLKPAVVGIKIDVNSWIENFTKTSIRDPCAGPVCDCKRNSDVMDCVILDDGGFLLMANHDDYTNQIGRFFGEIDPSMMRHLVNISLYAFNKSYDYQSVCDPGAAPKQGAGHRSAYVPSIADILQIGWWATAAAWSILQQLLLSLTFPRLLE
T1 sequence (O08532 957-1103 partner limits assumed): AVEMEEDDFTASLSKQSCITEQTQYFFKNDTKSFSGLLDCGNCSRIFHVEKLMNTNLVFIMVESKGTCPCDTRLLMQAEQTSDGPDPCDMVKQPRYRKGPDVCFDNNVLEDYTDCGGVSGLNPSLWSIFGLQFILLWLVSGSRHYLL
Text: In cardiac muscle, where Ca^2+ influx across the sarcolemma is essential for contraction, the dihydropyridine (DHP)-sensitive L-type calcium channel (DHP receptor) represents the major entry pathway of extracellular Ca^2+. […] The function of L-type calcium channels is examined in beating cardiac clusters at day 5+15 by evaluating chronotropic effects of cardioactive drugs.

[1] = test system: voltage-gated Na+ and L-type Ca2+ channels; assay: patch-clamp spontaneous action potentials, channel blockade; assay type: cell-based, mouse; conditions: cadmium 0.5 mmol/L; maGSC-derived cardiomyocytes
Description: To determine the functional expression of […] receptors in cardiomyocytes, the effects of β-adrenergic agonist isoproterenol (Iso; 1 μmol/L) on APs were studied. […] This is again in line with data from the ESC-derived cardiomyocytes. […] A further hint for the involvement of fast depolarising Na^+ channels are AP upstroke velocities in the magnitude of 30-50 Vs^−1 for ventricle-, purkinje and atrial-like APs (Table 3).
The membrane potential (Em) of cardiomyocytes was measured at room temperature with ruptured-patch whole cell current clamp (Maier, L. S., et al., Circ Res 2003, 92, 904-11). Fire-polished glass microelectrodes of >10 MΩ resistance when filled with pipette solution were used. Pipette solution contained (in mM) 120 potassium aspartate, 8 KCl, 7 NaCl, 1 MgCl2, 10 HEPES, 5 Mg-ATP, 0.3 Li-GTP (pH 7.2 with KOH). A normal Tyrode's solution with 2 mM CaCl2 served as bath solution. Access resistance was typically ˜20 MΩ after patch rupture. Liquid junction potentials were corrected before recording started. Spontaneous action potentials (APs) were recorded 1 min after patch rupture and followed for about 2 min. Signals were acquired at 1 kHz, filtered with 2.9 and 10 kHz Bessel filters, and recorded with an EPC10 amplifier (HEKA Elektronik, Lambrecht/Pfalz, Germany). […]

Row | Compound | beating frequency / contraction (L-type calcium channels) | chronotropic effect on the beating frequency of maGSC-derived cardiomyocytes (L-type calcium channels) | also measured
1 | O=C1Nc2cc(Br)ccc2/C1=C1/Nc2ccccc2/C1=N\O [BIO, (2′Z, 3′E)-6-Bromoindirubin-3′-oxime] |  |  | formation of ESC-like colonies (human SSCs): optimized the formation of ESC-like colonies; formation of ESC-like colonies (non-human primate SSCs): optimized the formation of ESC-like colonies
2 | CC1(C)[C@@H](OC(=O)CCC(=O)O)CC[C@]2(C)[C@H]3C(=O)C=C4[C@@H]5C[C@@](C)(C(=O)O)CC[C@]5(C)CC[C@@]4(C)[C@]3(C)CC[C@@H]12 [carbenoxolone, 3β-hydroxy-11-oxoolean-12-en-30-oic acid 3-hemisuccinate] |  |  | fluorescence recovery after photobleaching (gap junctions): disrupted; also recorded: almost completely abolished
3 | (S)-BayK 8644 | doubles the beating frequency | dose-dependent positive chronotropic effects | 
4 | [Cd] [cadmium] |  |  | spontaneous APs [1]: completely abolished
5 | COc1ccc([C@@H]2Sc3ccccc3N(CCN(C)C)C(=O)[C@@H]2OC(C)=O)cc1 [diltiazem] | almost completely blockes the contraction | dose-dependent negative chronotropic effects | 
